These results are taken from EPA's ToxRefDB 2.

One data set relates to mouse. The conditions noted are these: Carcinogenicity, cd1, Oral, Feed, dose end: 18 month.
The subject of data set [1] is rat. Conditions: Combined chronic toxicity/carcinogenicity, sprague dawley, Oral, Feed, dose end: 24 month, group: systemic.
The subject of the next data set is dog. Conditions: Chronic toxicity, beagle, Oral, Feed, dose end: 60 week, group: cholinesterase.
In data set [2] the test system is rat. Conditions: Prenatal developmental toxicity study, sprague dawley, Oral, Gavage/Intubation, dose end: 15 GD.
The test system of data set [3] is rat. Conditions: Combined chronic toxicity/carcinogenicity; fischer; Inhalation; Whole-Body; dose end: 105 week; group: systemic; systemic / pathology microscopic / nose / atrophy + systemic / pathology microscopic / nose / inflammation + systemic / pathology ….
Data set [4] concerns rat. The conditions noted are these: Subchronic oral toxicity in rodents, fischer, Gavage/Intubation, dose end: 13 week, group: systemic.
For data set [5], the system named is rat. The conditions noted are these: Combined chronic toxicity/carcinogenicity; fischer; Oral; Gavage/Intubation; dose end: 2 year; group: systemic; systemic / in life observation / body weight / body weight + systemic / in life observation / clinical signs / [other] + systemic / in life ….
The subject of data set [6] is rat. The conditions noted are these: Prenatal developmental toxicity study, sprague dawley, Oral, Gavage/Intubation, dose end: 19 GD.
In data set [7] the test system is rat. The conditions noted are these: Prenatal developmental toxicity study, sprague dawley, Oral, Gavage/Intubation, dose end: 15 GD. This is another data set of the same source.
The test system of a further data set is rabbit. The conditions noted are these: Prenatal developmental toxicity study, new zealand white, Oral, Gavage/Intubation, dose end: 18 GD, group: maternal.
[8] abbreviates: group: cholinesterase, cholinesterase / cholinesterase / cholinesterase / brain cholinesterase (che) + cholinesterase / cholinesterase / cholinesterase / ….
Setting [9] is: group: systemic, systemic / in life observation / body weight / body weight gain + systemic / in life observation / food consumption / food consumption + ….
Where [10] appears, read: systemic / in life observation / body weight / body weight + systemic / in life observation / body weight / body weight gain + systemic / ….
Where [11] appears, read: cholinesterase / cholinesterase / cholinesterase / erythrocyte cholinesterase (che) + cholinesterase / cholinesterase / cholinesterase / ….
Setting [12] is: cholinesterase / cholinesterase / cholinesterase / plasma cholinesterase (che).
The mark [13] stands for this setting: group: developmental, developmental / developmental malformation / brain / dilated cerebral ventricle.
The mark [14] stands for this setting: group: maternal, systemic / in life observation / clinical signs / altered breathing rate + systemic / in life observation / clinical signs / lethargy + ….
Where [15] appears, read: systemic / organ weight / liver / relative to body weight.
[16] abbreviates: group: developmental, systemic / in life observation / body weight / fetal weight.
The mark [17] stands for this setting: group: maternal, systemic / in life observation / body weight / body weight + systemic / in life observation / body weight / body weight gain + systemic / in….
Setting [18] is: group: developmental, developmental / developmental malformation / bone / incomplete ossification + developmental / developmental malformation / bone / unossified.
Setting [19] is: group: maternal, systemic / in life observation / clinical signs / salivation + systemic / in life observation / mortality / mortality + systemic / in life ….
Setting [20] is: reproductive / reproductive performance / implantations / implantations + systemic / in life observation / body weight / body weight gain + ….

A word on the LOAEL: it is the lowest tested level that showed an adverse finding. Broadly, the NOAEL is the highest tested level that showed no adverse finding. With `CCOP(=S)(OCC)Oc1nc(Cl)n(C(C)C)n1` [Isazofos], the LEL with mouse (setting [8]) came out at 4.5 mg/kg/day; in the data set on mouse (setting [9]), 37.5 mg/kg/day; in the data set with rat [1] (setting [10]), 10 mg/kg/day; in the data set on dog (setting [12]), 0.0015 mg/kg/day. In addition, the LOAEL in the data set on mouse (setting [8]) was 4.5 mg/kg/day; in the data set on mouse (setting [9]) it was 37.5 mg/kg/day; with rat [1] (systemic / in life observation / body weight / body weight + systemic / in life observation / body weight / body weight gain), 10 mg/kg/day; with dog (setting [11]) it was > 1.61 mg/kg/day. Further, the NEL in the data set with mouse (setting [8]) is 0.15 mg/kg/day; in the data set on mouse (setting [9]), 4.5 mg/kg/day; with rat [1] (setting [10]), 0.05 mg/kg/day; in the data set with dog (setting [12]), < 0.0015 mg/kg/day. Moreover, the no-observed-adverse-effect level (NOAEL) was 0.15 mg/kg/day in the data set with mouse (setting [8]), 4.5 mg/kg/day with mouse (setting [9]), 0.05 mg/kg/day in the data set with rat [1] (setting [10]) and ≥ 1.61 mg/kg/day in the data set on dog (setting [11]).
For `c1ccc2ccccc2c1` [Naphthalene], in the data set with rat [2] (setting [13]), the LEL came to 450 mg/kg/day, the LOAEL is > 450 mg/kg/day, the NEL is 150 mg/kg/day and the NOAEL is ≥ 450 mg/kg/day. Further, in the data set on rat [2] (setting [14]), the LEL amounted to 50 mg/kg/day, the LOAEL is 50 mg/kg/day, the NEL is < 50 mg/kg/day and the NOAEL was < 50 mg/kg/day. In the data set on rat [3], the LEL was 3.6 mg/kg/day, the LOAEL is 3.6 mg/kg/day, the NEL was < 3.6 mg/kg/day and the NOAEL was < 3.6 mg/kg/day.
Consider `[N-]=[N+]=[N-].[Na+]` [Sodium azide], for which the LOAEL was 10 mg/kg/day with rat [4] (systemic / in life observation / body weight / body weight gain + systemic / in life observation / clinical signs / hunched posture), 10 mg/kg/day in the data set on rat [5], > 17.5 mg/kg/day with rat [6] (setting [16]) and > 17.5 mg/kg/day in the data set with rat [6] (setting [17]). Further, the NOAEL in the data set on rat [4] (systemic / in life observation / body weight / body weight gain + systemic / in life observation / clinical signs / hunched posture + …) was 5 mg/kg/day; in the data set with rat [5] it was 5 mg/kg/day; in the data set on rat [6] (setting [16]), ≥ 17.5 mg/kg/day; with rat [6] (setting [17]) it was ≥ 17.5 mg/kg/day. Further, the LEL with rat [4] (setting [15]) amounted to 1.25 mg/kg/day; in the data set with rat [5] it was 10 mg/kg/day; in the data set on rat [6] (setting [16]), 17.5 mg/kg/day; in the data set on rat [6] (setting [17]) it was 17.5 mg/kg/day. For the same molecule, the NEL with rat [4] (setting [15]) is < 1.25 mg/kg/day; in the data set on rat [5], 5 mg/kg/day; with rat [6] (setting [16]) it was 5 mg/kg/day; in the data set with rat [6] (setting [17]) it was 5 mg/kg/day.
`CCN(CC)CC.O=C(O)COc1nc(Cl)c(Cl)cc1Cl` [Triclopyr triethylamine salt]: the LEL in the data set on rat [7] (setting [18]) was 300 mg/kg/day; in the data set on rat [7] (group: maternal, systemic / in life observation / water consumption / water consumption), 100 mg/kg/day; in the data set with rabbit (reproductive / reproductive performance / preimplantation loss / preimplantation loss) it was 30 mg/kg/day. Besides, the lowest-observed-adverse-effect level (LOAEL) with rat [7] (setting [18]) amounted to 300 mg/kg/day; in the data set on rat [7] (group: maternal, systemic / in life observation / clinical signs / salivation + systemic / in life observation / mortality / mortality), 300 mg/kg/day; with rabbit (setting [20]), 100 mg/kg/day. Also, the NEL amounted to 100 mg/kg/day in the data set on rat [7] (setting [18]), 30 mg/kg/day with rat [7] (setting [19]) and 10 mg/kg/day in the data set with rabbit (setting [20]). The NOAEL in the data set on rat [7] (setting [18]) was determined as 100 mg/kg/day; in the data set with rat [7] (setting [19]) it was 100 mg/kg/day; in the data set on rabbit (setting [20]) it was 30 mg/kg/day.
